The structures appear in SMILES notation. pKi: −log10 of the molar value.

The target of this assay is Platelet-activating factor receptor (Oryctolagus cuniculus). Put plainly: Antagonist activity against platelet activating factor (PAF) receptor in rabbit platelet membranes using [3H]C18-PAF as radioligand.
On to `O=C(c1c[nH]c2ccccc12)[C@@H]1CS[C@@H](c2cccnc2)N1C(=O)C(F)(F)F`, for which the pKi (usually the Ki on a negative log10 scale, so that one unit is a factor of ten) is 5.15.

`O=C(c1c[nH]c2ccccc12)[C@@H]1CS[C@H](c2cccnc2)N1C(=O)C(F)(F)F`: the pKi is 5.79.

`CC(=O)N1C(c2cccnc2)SC[C@H]1C(=O)c1c[nH]c2ccccc12` (stereo partly drawn) [1-[(R)-4-(1H-Indole-3-carbonyl)-2-pyridin-3-yl-thiazolidin-3-yl]-ethanone] gave a pKi of 4.75.

Consider `CC(C)(C)C(=O)n1cc(C(=O)[C@@H]2CSC(c3cccnc3)N2)c2ccccc21` (stereo partly drawn) [2,2-Dimethyl-1-[3-((R)-2-pyridin-3-yl-thiazolidine-4-carbonyl)-indol-1-yl]-propan-1-one], for which the negative-log Ki (pKi) was 8.06.

For `Cc1ccc2c(c1)c(C(=O)[C@@H]1CSC(c3cccnc3)N1)c(C)n2C(=O)N(C)C` (stereo partly drawn) [2,5-Dimethyl-3-(2-pyridin-3-yl-thiazolidine-4-carbonyl)-indole-1-carboxylic acid dimethylamide], the pKi is 7.89.

As to `Cc1ccc2c(c1)c(C(=O)[C@@H]1CSC(c3cccnc3)N1)c(C)n2C(=O)OC(C)(C)C` (stereo partly drawn) [2,5-Dimethyl-3-((R)-2-pyridin-3-yl-thiazolidine-4-carbonyl)-indole-1-carboxylic acid tert-butyl ester; compound with oxalic acid], the pKi is 7.11.

In turn, `Cc1c(C(=O)[C@@H]2CSC(c3cccnc3)N2)c2ccccc2n1C(=O)OC(C)(C)C` (stereo partly drawn) [2-Methyl-3-((R)-2-pyridin-3-yl-thiazolidine-4-carbonyl)-indole-1-carboxylic acid tert-butyl ester; compound with oxalic acid] had a pKi of 8.02. Compared with the last molecule, the pKi is 0.91 log units higher.

In turn, `NC(=O)Cn1cc(C(=O)[C@@H]2CSC(c3cccnc3)N2)c2ccccc21` (stereo partly drawn) [2-[3-((R)-2-Pyridin-3-yl-thiazolidine-4-carbonyl)-indol-1-yl]-acetamide] showed a pKi of 8.30.

The molecule `O=C(c1cn(C(=O)OCc2ccccc2)c2ccccc12)[C@@H]1CSC(c2cccnc2)N1` (stereo partly drawn) [3-((R)-2-Pyridin-3-yl-thiazolidine-4-carbonyl)-indole-1-carboxylic acid benzyl ester; compound with oxalic acid] gave a pKi of 8.52.

Turning to `CCN(CC)C(=O)n1cc(C(=O)[C@@H]2CSC(c3cccnc3)N2)c2ccccc21` (stereo partly drawn) [3-((R)-2-Pyridin-3-yl-thiazolidine-4-carbonyl)-indole-1-carboxylic acid diethylamide], the pKi is 8.85.

As to `CN(C)C(=O)n1cc(C(=O)[C@@H]2CSC(c3cccnc3)N2)c2ccccc21` (stereo partly drawn) [3-((R)-2-Pyridin-3-yl-thiazolidine-4-carbonyl)-indole-1-carboxylic acid dimethylamide], the negative-log Ki (pKi) was 9.10.

In turn, `CCOC(=O)n1cc(C(=O)[C@@H]2CSC(c3cccnc3)N2)c2ccccc21` (stereo partly drawn) [3-((R)-2-Pyridin-3-yl-thiazolidine-4-carbonyl)-indole-1-carboxylic acid ethyl ester] showed a pKi of 8.36.

`CN(C(=O)n1cc(C(=O)[C@@H]2CSC(c3cccnc3)N2)c2ccccc21)c1ccccc1` (stereo partly drawn) [3-((R)-2-Pyridin-3-yl-thiazolidine-4-carbonyl)-indole-1-carboxylic acid methyl-phenyl-amide] gave a pKi of 7.51.

Molecule `CC(C)(C)OC(=O)n1cc(C(=O)[C@@H]2CSC(c3cccnc3)N2)c2ccccc21` (stereo partly drawn) [3-((R)-2-Pyridin-3-yl-thiazolidine-4-carbonyl)-indole-1-carboxylic acid tert-butyl ester] had a pKi of 9.00.

In turn, `CC(C)(C)NC(=O)n1cc(C(=O)[C@@H]2CSC(c3cccnc3)N2)c2ccccc21` (stereo partly drawn) [3-((R)-2-Pyridin-3-yl-thiazolidine-4-carbonyl)-indole-1-carboxylic acid tert-butylamide] had a pKi of 8.06.

Take `COC(=O)CCn1cc(C(=O)[C@@H]2CSC(c3cccnc3)N2)c2ccccc21` (stereo partly drawn) [3-[3-((R)-2-Pyridin-3-yl-thiazolidine-4-carbonyl)-indol-1-yl]-propionic acid methyl ester]: the pKi was 8.34.

`O=C(O)CCn1cc(C(=O)[C@@H]2CSC(c3cccnc3)N2)c2ccccc21` (stereo partly drawn) [3-[3-((R)-2-Pyridin-3-yl-thiazolidine-4-carbonyl)-indol-1-yl]-propionic acid] gave a pKi of 7.60.

Regarding `COc1cc2c(C(=O)[C@@H]3CSC(c4cccnc4)N3)cn(C(=O)N(C)C)c2cc1OC` (stereo partly drawn) [5,6-Dimethoxy-3-((R)-2-pyridin-3-yl-thiazolidine-4-carbonyl)-indole-1-carboxylic acid dimethylamide], the pKi is 8.00.

Consider `COCCOc1ccc2c(C(=O)[C@@H]3CSC(c4cccnc4)N3)cn(C(=O)N(C)C)c2c1` (stereo partly drawn) [6-(2-Methoxy-ethoxy)-3-((R)-2-pyridin-3-yl-thiazolidine-4-carbonyl)-indole-1-carboxylic acid dimethylamide], for which the pKi is 8.52.

`Cc1nnc2n1-c1sc3c(c1C(c1ccccc1Cl)=NC2)CC(C(=O)N1CCOCC1)C3` (stereo not drawn) [6-(2-chlorophenyl)-1-methyl-8,9-dihydro-4H,7H-cyclopenta[4,5]thieno[3,2-f][1,2,4]triazolo[4,3-a][1,4]diazepin-9-yl-1,4-oxazinan-4-ylmethanone (WEB 2170)] had a pKi of 7.54.

The molecule `CN(C)C(=O)n1cc(C(=O)[C@@H]2CSC(c3cccnc3)N2)c2ccc(OCc3ccc(F)cc3)cc21` (stereo partly drawn) [6-(4-Fluoro-benzyloxy)-3-((R)-2-pyridin-3-yl-thiazolidine-4-carbonyl)-indole-1-carboxylic acid dimethylamide] showed a pKi of 8.74.

For the molecule `CN(C)C(=O)n1cc(C(=O)[C@@H]2CSC(c3cccnc3)N2)c2ccc(Oc3ccc(F)cc3)cc21` (stereo partly drawn) [6-(4-Fluoro-phenoxy)-3-((R)-2-pyridin-3-yl-thiazolidine-4-carbonyl)-indole-1-carboxylic acid dimethylamide], the pKi was 8.66.

`CN(C)C(=O)n1cc(C(=O)[C@@H]2CSC(c3cccnc3)N2)c2ccc(-c3ccc(F)cc3)cc21` (stereo partly drawn) [6-(4-Fluoro-phenyl)-3-((R)-2-pyridin-3-yl-thiazolidine-4-carbonyl)-indole-1-carboxylic acid dimethylamide] showed a pKi of 8.04.

With `CN(C)C(=O)n1cc(C(=O)[C@@H]2CSC(c3cccnc3)N2)c2ccc(C(=O)c3ccccc3)cc21` (stereo partly drawn) [6-Benzoyl-3-((R)-2-pyridin-3-yl-thiazolidine-4-carbonyl)-indole-1-carboxylic acid dimethylamide], the negative logarithm of the Ki (pKi) is 9.00.

For `CN(C)C(=O)n1cc(C(=O)[C@@H]2CSC(c3cccnc3)N2)c2ccc(OCc3ccccc3)cc21` (stereo partly drawn) [6-Benzyloxy-3-((R)-2-pyridin-3-yl-thiazolidine-4-carbonyl)-indole-1-carboxylic acid dimethylamide; compound with oxalic acid], the pKi was 8.85. The pKi values of the last two molecules are within 0.2 log units of each other.

Molecule `CC(C)(C)OC(=O)n1cc(C(=O)[C@@H]2CSC(c3cccnc3)N2)c2ccc(OCc3ccccc3)cc21` (stereo partly drawn) [6-Benzyloxy-3-((R)-2-pyridin-3-yl-thiazolidine-4-carbonyl)-indole-1-carboxylic acid tert-butyl ester] gave a pKi of 9.00.

For `CN(C)C(=O)n1cc(C(=O)[C@@H]2CSC(c3cccnc3)N2)c2ccc(Br)cc21` (stereo partly drawn) [6-Bromo-3-((R)-2-pyridin-3-yl-thiazolidine-4-carbonyl)-indole-1-carboxylic acid dimethylamide], the pKi was 9.22.

Regarding `CN(C)C(=O)n1cc(C(=O)[C@@H]2CSC(c3cccnc3)N2)c2ccc(Cl)cc21` (stereo partly drawn) [6-Chloro-3-((R)-2-pyridin-3-yl-thiazolidine-4-carbonyl)-indole-1-carboxylic acid dimethylamide], the pKi is 9.00.

`COc1ccc2c(C(=O)[C@@H]3CSC(c4cccnc4)N3)cn(C(=O)OC(C)(C)C)c2c1` (stereo partly drawn) [6-Methoxy-3-((R)-2-pyridin-3-yl-thiazolidine-4-carbonyl)-indole-1-carboxylic acid tert-butyl ester; compound with oxalic acid] had a pKi of 8.09.

Turning to `Cc1ccc2c(C(=O)[C@@H]3CSC(c4cccnc4)N3)cn(C(=O)OC(C)(C)C)c2c1` (stereo partly drawn) [6-Methyl-3-((R)-2-pyridin-3-yl-thiazolidine-4-carbonyl)-indole-1-carboxylic acid tert-butyl ester], the pKi is 8.59. Compared with the last molecule, the pKi is 0.50 log units higher.

As to `CN(C)C(=O)n1cc(C(=O)[C@@H]2CSC(c3cccnc3)N2)c2ccc(-c3ccccc3)cc21` (stereo partly drawn) [6-Phenyl-3-((R)-2-pyridin-3-yl-thiazolidine-4-carbonyl)-indole-1-carboxylic acid dimethylamide], the pKi was 8.44.

Molecule `CN(C)C(=O)n1cc(C(=O)[C@@H]2CSC(c3cccnc3)N2)c2ccc(C#Cc3ccccc3)cc21` (stereo partly drawn) [6-Phenylethynyl-3-((R)-2-pyridin-3-yl-thiazolidine-4-carbonyl)-indole-1-carboxylic acid dimethylamide] gave a pKi of 8.89.

`CN(C)C(=O)n1cc(C(=O)[C@@H]2CSC(c3cccnc3)N2)c2ccc(-c3cccnc3)cc21` (stereo partly drawn) [6-Pyridin-3-yl-3-((R)-2-pyridin-3-yl-thiazolidine-4-carbonyl)-indole-1-carboxylic acid dimethylamide] gave a pKi of 7.40.

`CN(C)C(=O)n1cc(C(=O)[C@@H]2CSC(c3cccnc3)N2)c2cccc(OCc3ccccc3)c21` (stereo partly drawn) [7-Benzyloxy-3-((R)-2-pyridin-3-yl-thiazolidine-4-carbonyl)-indole-1-carboxylic acid dimethylamide] showed a pKi of 7.85. This pKi lies 0.45 log units higher than the previous one.

For `O=C(c1cn(Cc2ccccc2)c2ccccc12)[C@@H]1CSC(c2cccnc2)N1` (stereo partly drawn) [(1-Benzyl-1H-indol-3-yl)-((R)-2-pyridin-3-yl-thiazolidin-4-yl)-methanone], the pKi is 7.31. This pKi is 0.54 log units lower than that of the molecule before.

Regarding `CCS(=O)(=O)n1cc(C(=O)[C@@H]2CSC(c3cccnc3)N2)c2ccccc21` (stereo partly drawn) [(1-Ethanesulfonyl-1H-indol-3-yl)-((R)-2-pyridin-3-yl-thiazolidin-4-yl)-methanone], the pKi was 7.74.

As to `CCn1cc(C(=O)[C@@H]2CSC(c3cccnc3)N2)c2ccccc21` (stereo partly drawn) [(1-Ethyl-1H-indol-3-yl)-((R)-2-pyridin-3-yl-thiazolidin-4-yl)-methanone], the pKi is 8.27. This pKi lies 0.53 log units higher than the previous one.

For `O=C(c1c[nH]c2ccccc12)[C@@H]1CSC(c2cccnc2)N1` (stereo partly drawn) [(1H-Indol-3-yl)-((R)-2-pyridin-3-yl-thiazolidin-4-yl)-methanone; compound with oxalic acid], the pKi was 8.47.
